Assay results: patent publication US9434994B2, “Methods for prediction of clinical outcome to epidermal growth factor receptor inhibitors by non-small cell lung cancer patients” (The Regents of the University of Colorado, a body corporate, priority 2004, dated 2016)
Values joined by “and” are separate entries in the source; they are usually repeats but may differ in a detail not shown here. Identical values can stand only once. Like-named read-outs stand apart in the source and are kept apart here.

System: advanced non-small-cell lung cancer patients
[1] = HER2 FISH- and/or EGFR mutation-
[2] = all 85 patients with EGFR mutation and P-Akt
[3] = all 89 patients with EGFR mutation analysis
[4] = all 98 patients with EGFR FISH and P-Akt
[5] = all 98 patients with EGFR IHC and P-Akt
[6] = all 102 patients, Example 1 analysis

## COc1cc2ncnc(Nc3ccc(F)c(Cl)c3)c2cc1OCCCN1CCOCC1 [gefitinib]
HER2 FISH+/EGFR IHC+
  TTP: 12.3 months
HER2 FISH+/EGFR IHC-
  OS: 3.3 months
  TTP: 2.3 months
HER2 FISH+/EGFR mutation+
  DCR: 87.5%
  OR: 87.5%
  OS: not reached
  TTP: 15.5 months
HER2 FISH+/EGFR mutation-
  OR: no patient responded
  TTP: 2.3 months
HER2 FISH-
  DCR: 33.3%
  OR: 6.4%
  OS: 8.4 months
  TTP: 2.7 months
HER2 FISH- and/or EGFR FISH-
  DCR: 33.0%
  OR: 6.8%
  median OS: 8.3 months
  median TTP: 2.6 months
HER2 FISH- and/or EGFR IHC-
  DCR: 34.5%
  OR: 7.1%
  OS: 8.4 months
  TTP: 2.6 months
[1]
  DCR: 31.3%
  OR: 5.0%
  OS: 8.3
  TTP: 2.6 months
HER2 FISH-/EGFR FISH+
  DCR: 30.0%
  OR: 10.0%
  median OS: 9.3 months
  median TTP: 5.3 months
HER2 FISH-/EGFR FISH-
  OR: 1.6%
  median OS: 7.3 months
  median TTP: 2.6 months
HER2 FISH-/EGFR IHC+
  OR: 11.1%
  OS: 11.3 months
  TTP: 4.2 months
HER2 FISH-/EGFR IHC-
  DCR: 13.7%
  OR: 0%
  OS: 5.0 months
  TTP: 2.1 months
HER2 FISH-/EGFR mutation+
  DCR: 28.5%
  OR: 14.2%
  OS: 5.7
  TTP: 2.8 months
HER2 FISH-/EGFR mutation-
  DCR: 32.2%
  OR: 4.8%
Italian Cohort, Table 12
  Disease Control Rate: 39%
  Median Survival: 9 (6-11)
  Median Time to Progression: 3 (2-4)
  One-YR Survival: 41% (31-51)
  Overall Response: 13%
P-Akt negative
  Disease Control Rate: 22%
  response rate: 0%
  time to progression: 2.1 months
P-Akt positive
  Survival: 11.4 months
  response rate: 21%
  time to progression: 4.2 months
adenocarcinoma
  1-year Cumulative Survival ± SD: 45 ± 7%
  Median Survival: 11.3 months
  Median Time to Progression: 3.2 months
  Objective Response: 8/15%
[2]
  Median Time to Progression: 2.9 months
  Objective Response: 12/14%
[3]
  1-year survival: 41 ± 5
  MS: 9.4 mo
  OR: 12 (13%)
  TTP: 2.9 mo
[4]
  1-year Cumulative Survival ± SD: 47 ± 6%
  Disease Control Rate: 40/40%
  Median Survival: 11.5 months
  Median Time to Progression: 4.5 months
  Objective Response: 14/14%
All 98 patients with EGFR IHC
  MS (median overall survival): 9.5 mo
  OR (objective response): 14 (14%)
  PD (progressive disease): 58 (59%)
  TTP: 2.9 mo
[5]
  1-year Cumulative Survival ± SD: 45 ± 6%
  Disease Control Rate: 40/40%
  Median Survival: 11.3 months
  Median Time to Progression: 3.2 months
  Objective Response: 14/14%
All 102 patients
  Complete response (CR): 1%
  Partial responses (PR): 12.7%
[6]
  % Patients without disease progression at 12 months: 18.6%
  Complete and Partial Response: 13.7% and 14%
  Disease Control Rate: 39.2% and 39%
  Median Time to Progression: 2.9 months
  One-year Survival Rate: 45.1%
  Progressive Disease: 60.8%
  Stable Disease: 25.5%
All 102 patients, Table 1
  Median Time to Progression: 2.9 months
  Objective Response: 14% and 14/14%
  Progressive Disease: 60% and 62/60%
bronchioloalveolar
  1-year Cumulative Survival ± SD: 67 ± 16%
  Median Survival: 16.5 months
  Median Time to Progression: 3.0 months
  Objective Response: 3/33%
  Progressive Disease: 5/56%
Current smoker
  1-year Cumulative Survival ± SD: 30 ± 6%
  Median Survival: 4.5 months
  Median Time to Progression: 2.3 months
  Objective Response: 3/6%
  Progressive Disease: 39/72%
female
  1-year Cumulative Survival ± SD: 48 ± 9%
  Median Survival: 11.3 months
  Median Time to Progression: 5.2 months
  Progressive Disease: 16/46%
females, Example 1 analysis
  median TTP: 4.5 months
Former and current smokers
  response rate: 20.8%
Former smoker
  1-year Cumulative Survival ± SD: 55 ± 9%
  Median Time to Progression: 3.6 months
  Objective Response: 5/15%
  Progressive Disease: 17/51%
Large cell
  1-year Cumulative Survival ± SD: 0 ± 0%
  Median Survival: 0.8 months
  Median Time to Progression: 0.8 months
  Objective Response: 0%
  Progressive Disease: 2/100%
male
  Median Time to Progression: 2.7 months
  Objective Response: 6.0% and 4/6%
males, Example 1 analysis
  median TTP: 2.7 months
Never smoker
  1-year Cumulative Survival ± SD: 47 ± 14%
  Median Survival: 10.9 months
  Median Time to Progression: 5.3 months
  Progressive Disease: 6/40%
Performance status 0
  Median Time to Progression: 2.6 months
  Objective Response: 5/10%
  Progressive Disease: 32/65%
Performance status 1
  1-year Cumulative Survival ± SD: 47 ± 8%
  Median Survival: 10.9 months
  Median Time to Progression: 4.2 months
  Progressive Disease: 22/54%
Performance status 2
  1-year Cumulative Survival ± SD: 22 ± 13%
  Median Survival: 2.7 months
  Median Time to Progression: 2.1 months
  Objective Response: 2/17%
Squamous cell
  1-year Cumulative Survival ± SD: 22 ± 9%
  Median Time to Progression: 2.2 months
  Objective Response: 2/8%
Stage III
  1-year Cumulative Survival ± SD: 36 ± 13%
  Median Time to Progression: 6.0 months
  Objective Response: 1/7%
Stage IV
  Median Time to Progression: 2.7 months
  Objective Response: 13/15%
undifferentiated
  1-year Cumulative Survival ± SD: 45 ± 15%
  Median Time to Progression: 2.1 months
  Objective Response: 1/9%
